Patent US20240277632A1, “Epinephrine Pharmaceutical Formulations for Intranasal Delivery” (priority 2020, published 2024)

Columns and labels:
[1] = aqueous epinephrine by the IN route, no enhancer; cited from earlier work
[2] = system: rats; experiment: in vivo; conditions: rats
Experimental: (§1) Each rat was treated with two (2) IN administrations of the respective formulations in Groups A1-A5.
(§2) The analysis of clinical pathology was conducted by a qualified veterinary laboratory (Quality Veterinary Laboratory (QVL), Davis, California, USA).
(§3) Histopathological evaluation was conducted by a qualified pathology laboratory (Experimental Pathology Laboratories, Inc. (EPL), Sterling, Virginia, USA). […] EPL's histopathological findings were graded from 1 to 5, with 1 as minimal, and 5 as severe, depending upon severity.

[3] = in vivo; conditions: rat, in vivo
Experimental: as §1, §2, §3

[4] = human; cohort 1 (T2, T4a, Ra)
[5] = system: nasal mucosa of rats; experiment: Local toxicity study of STCDC, histopathology of nasal mucosa (Example 5); assay type: in vivo; conditions: rat; after exposure to STCDC and epinephrine
Experimental: Example 5 is an animal study designed to investigate the possible histological effects of bile salts (STCDC) on nasal mucosa of rats when the bile salt is used as an absorption enhancer for IN delivery. […] These IN formulations were administered intranasally to the rats. The histopathology of the rat's nasal tissue was examined to evaluate nasal mucosa tolerance to these tested IN formulations.
In Table 5.1, Group Nos. 2-6 each had excipients of about 8.5 mg/mL sodium chloride, about 3.84 mg/mL citric acid, about 1.5 mg/mL sodium metabisulfite, about 2.3 mg/mL HCl (10% w/v), and a pH adjustor (NaOH) as needed to adjust the pH to 3.6. […]
In total, EPL assessed 48 types of microscopic findings in nasal turbinate cavity level I through IV, as detailed in Table 5.3. […]
In order to quantitatively analyze the data for histopathological findings, the three (3) quantities, (i) total observation point (TOP), denoted as TOP, (ii) Average TOP per item per rat, and (iii) average occurrence for Level i (AOL)-i (i=1-5) were analyzed.
where m1, m2, m3, m4, and m5 are number of findings with Level 1, 2, 3, 4, 5, respectively, from the 48 microscopic histopathological items (as detailed in Table 5.3) assessed by EPL, n is the number of rats examined.

## CNCC(O)c1ccc(O)c(O)c1 (single isomer, unassigned; (-)) [epinephrine, (-)-3,4-Dihy droxy-α-[(methyl-amino)methyl]benzyl alcohol]
[1]
  bioavailability (BA) based on AUC in plasma concentration, IN relative to same dose by IM route: approximately 5%

## C[C@H](CCC(=O)NCCS(=O)(=O)[O-])[C@H]1CC[C@H]2[C@@H]3[C@H](O)C[C@@H]4C[C@H](O)CC[C@]4(C)[C@H]3C[C@H](O)[C@]12C.[Na+] [STC, sodium taurocholate]
[2]; 15 mg/mL x 0.025 mL x 2, body weight 0.298 kg
  NOAEL for bile salt (STC) at an IN delivery, relative dose: 2.5 mg/kg
[2]; IN administration, highest studied concentration
  NOAEL for the bile salt (STC), concentration: exceeding 15 mg/mL
[3]
  NOAEL: ≥ 2.5 mg/kg
[4]
  baseline level of plasma STC: approximately 20 pg/mL

## C[C@H](CCC(=O)NCCS(=O)(=O)[O-])[C@H]1CC[C@H]2C3[C@H](O)C[C@@H]4C[C@H](O)CC[C@]4(C)[C@H]3CC[C@]12C.[Na+] (stereo partly drawn) [STCDC, sodium taurochenodeoxycholate]
[5]
  course of observed nasal toxicity items over time (average TOP, FIG. 6D): nearly normal at two weeks post-dose
